According to patent US9717772B2, “Interval therapy for the treatment of loss of eyesight in humans with glaucoma and other degenerative eye diseases” (Ramot at Tel-Aviv University Ltd., priority 2012, dated 2017):
Non-standard residues stand in square brackets, D forms with d. Residues, ends and D or L forms follow the SMILES beside them. Aib = CC(C)(N)C(=O)O

Columns and labels:
[1] = test system: CA1 region of the hippocampus (Aβ1-42 inhibition of LTP); test: Long-term potentiation (LTP) of fEPSPs in hippocampal slices after Aβ1-42 aggregated with or without D-Trp-Aib; assay type: cell-based, mice; details: Aβ1-42 50 nM aggregated under serial dilution conditions without D-Trp-Aib
Protocol: Aβ1-42 (order number 62-0-80, batch Y11042T1, American Peptide Company, Sunnyvale, Calif. 94086, U.S.A.) is suspended in 100% HFIP (Sigma Aldrich) to approximately 1 mg/ml (2 mg dissolved in 2 ml HFIP) and shaken at 37° C. for 1.5 hours in tightly sealed Eppendorf vials. This is allowed to cool to room temperature and then the solution is portioned into aliquots and the HFIP removed by evaporation using a Speedvac for approximately 30 minutes. When dry, the Aβ1-42 is stored at −20° C. The Aβ1-42 is dissolved in anhydrous DMSO (Sigma Aldrich) to a concentration of 100 fold that required in PBS (i.e. 10 mM for 100 μM) with the aid of an ultrasonic water bath with/without D-Trp-Aib (SEQ ID NO. 30) (i.e. for a 10:1 ratio with D-Trp-Aib (SEQ ID NO. 30) 100 mM for 10 mM Aβ1-42). This solution is then immediately diluted in PBS to a final concentration of 100 μM Aβ in 1% DMSO. These solutions are allowed to aggregate at room temperature for various times (e.g. 1 hour, 1 day, 1 week) before being used. […]
Extracellular recordings of field excitatory postsynaptic potentials (fEPSPs) are obtained from the dendritic region of the CA1 region of the hippocampus using glass micropipettes (1-2 MW) filled with superfusion solution. […] Amplified fEPSPs and NMDA-EPSCs are filtered (3 kHz), digitized (15 kHz) and measured and plotted online, using the “LTP-program”-software. […]

[2] = Half-life and concentrations of substance in the rat / vitreal space of the eye; assay type: in vivo
Protocol: In a further experiment, rats are treated systemically (s.c.) and the experiment is repeated as above. The aim of this study is to verify whether systemic administration produces sufficiently high concentrations in the eye. Therefore, additionally, concentrations of substances of the instant invention are analyzed in the vitreal space of the eye. In animals treated systemically with experimental substances, there is a decrease in RGC apoptosis at least at one time point assessed and significant concentrations of the experimental substances are detected in the vitreal space of the eye.
The experiment is repeated as described above, except that substance is applied (s.c.) once 24 hrs before induction of glaucoma.
In another animal study with glaucomatous rats (procedure as described above, Morrison model) D-Trp-Aib (SEQ ID NO. 30) is applied 3 days prior to the induction of glaucoma (one single s.c injection). […] The explanation of this unexpected finding is that the pretreatment with D-Trp-Aib (SEQ ID NO. 30) leads to formation of non-toxic bulky Aβ aggregates (possibly micro non-toxic bulky Aβ aggregates) consisting of D-Trp-Aib (SEQ ID NO. 30) and physiologically Aβ that is ubiquitously prevailing at low concentrations. These non-toxic bulky Aβ aggregates function in isolating toxic Aβ after glaucoma induction even if the Aβ is released at higher concentrations.

Row | Compound | inhibition of LTP [1] | detectability in the animal at the time point of glaucoma induction ([2]; 3 days after one single s.c injection) | half-life ([2]; in vivo, in the rat)
1 | Aβ1-42: lyophilized β-amyloid Aβ1-42 peptide (Bachem / American Peptide Company) used as toxic stimulus | strong inhibition of LTP | – | –
2 | CC(C)(NC(=O)[C@H](N)Cc1c[nH]c2ccccc12)C(=O)O [D-Trp-Aib] (H-[dW]-[Aib]-OH; N-terminus and C-terminus assumed) | – | no longer detectable | 1 to 2 h
